From US20090054403A1, “Treatment of Post-Traumatic Stress Disorder” (priority 2007, published 2009)
Entries after “also recorded” stand apart in the source; their conditions may differ.

Assays:
[1] = test system: acoustic startle reactivity; test: Acoustic startle reactivity on day ten of chronic dosing; settings: day ten of b.i.d. oral dosing
Protocol: The effects of chronic dosing of nepicastat were examined. Between three and thirteen days prior to the first dosing day the rats were placed inside the startle apparatus and after a five minute acclimation period they were presented with a 118 dB noise burst on average once a minute (a variable inter-trial interval ranging between 30 and 90 seconds will be used) for 20 minutes. The startle responses were measured and a mean for the last twenty startle response was calculated for each rat.
Acoustic startle reactivity (a series of muscle contractions elicited by an intense burst of noise with a rapid onset), and pre-pulse inhibition (sensorimotor gating measured by analyzing any decrease in startle reactivity which occurs when a startling stimulus is immediately preceded by a non startling stimulus) were both measured in eight SR-Lab (San Diego Instruments, San Diego, Calif.) test stations. The rats were placed individually in a Plexiglas cylinder (10 cm diameter) which was housed in a ventilated sound-attenuating enclosure. Acoustic noise bursts (a broad band noise with a rise time and fall time of 1 msec) were presented via a speaker mounted 30 cm above the animal. Also, these speakers produced a 68 dB level of background noise throughout all test sessions. […] A decibel meter was used to calibrate the speakers in each of the eight test station to ±1% of the mean. Additionally, a SR-Lab calibrating instrument was used to calibrate each of the eight startle detection apparatuses to ±2% of the mean. Startle reactivity and pre-pulse inhibition tests were run concurrently immediately alter the motor activity test (about 4 hours and 40 minutes after the morning daily injection of nepicastat, and SKF-102698, and 10 minutes after a supplemental administration of clonidine and d-amphetamine on dosing day ten).

parkinsonian symptoms = test: Parkinsonian clinical rating scale (CRS) in MPTP-lesioned monkeys; format: in vivo, squirrel monkeys (Saimiri sciureus); settings: hydrochloride
Protocol: A total of 24 squirrel monkeys (Saimiri sciureus), fourteen females and ten males were used in this study. The twenty-four animals were randomly assigned to one of four treatment groups, with 6 animals per group. The groups consisted of the following (1) group A: placebo (2) group B: 1 mg/kg/day; (3) group C: 4 mg/kg/day; and (4) group D: 10 mg/kg/day. In Group B, one animal died acutely following MPTP-lesioning, and was not replaced.
Animals were lesioned by the administration of MPTP at a concentration of 2.0 mg/kg (free-base) via subcutaneous injection to achieve a parkinsonian state (see FIGS. 151-156). A post-MPTP lesioning behavioral assessment was carried out 2 to 4 weeks after the last MPTP-Iesioning. Locomotor activity was monitored by IRAM in 60-minute sessions for 3 to 5 days. Clinical behavior (CAS) was assessed by one to three individuals rating over a period of 3 to 5 days.
Animals were tested for response to L-Dopa and the efficacy of drug nepicastat. Testing was carried out 4 to 12 weeks after the last MPTP dose. Twenty-tour squirrel monkeys were randomly assigned to 4 groups; Group A (6 animals) received placebo (water) treatment; Group B (5 animals) received drug nepicastat at 1 mg/kg/day (0.5 mg/kg twice daily); Group C (6 animals) received 4 mg/kg/day (2 mg/kg twice daily); and Group D (6 animals) received 10 mg/kg/day (5 mg/kg twice daily).
L-Dopa was administered at a concentration of either 2.5, 5, or 7.5 mg/kg by oral gavage twice daily (at 10 am and 2 pm) for 7 consecutive days. Behavior was determined by IRAM and CRS. Clinical rating was carried out 60 to 90 minutes following the 10 am morning dose on the last 4 days of treatment. Raters (one to three individuals) were blinded to the different treatment groups. IRAM assessment were preformed for 90 minutes immediately following drug administration at 2 pm on the last 2 to 5 days of drug treatment. There was a minimum 2 day washout period between each treatment dose.
Drug nepicastat or water (as placebo) was administered for 12 days following a minimum 2 day washout after L-Dopa dosing. Drug was administered twice daily at 10 am and 2 pm by oral gavage. Behavior was rated by IRAM and CRS. The CRS was conducted in the morning, 60 to 90 minutes after the 10 am dose of nepicastat on the last 5 days of drug treatment. Raters (one to three individuals) were blinded to the different treatment groups. IRAM assessments were preformed for 90 minutes immediately following drug administration at 2 pm on the last 5 days of drug treatment.
Eight parkinsonian features were rated in each animal and the total score was derived from the sum of these eight features. […]

Structure (SMILES) | acoustic startle reactivity vs vehicle [1] | acoustic startle reactivity vs vehicle ([1]; listed as SKF102698) | CRS / parkinsonian symptoms compared to placebo (parkinsonian symptoms; 1, 4, 10 mg/kg/day, 12 days, non-pairwise) | CRS / parkinsonian symptoms compared to post-MPTP (pre-treatment) state (parkinsonian symptoms; nepicastat 4 and 10 mg/kg/day, pairwise)
Fc1cc(F)cc(Cn2cc[nH]c2=S)c1 [SKF 102698, reference compound] | significantly lower startle response compared to cyclodextrin | significantly reduced | – | –
Cl.NCc1c[nH]c(=S)n1[C@H]1CCc2c(F)cc(F)cc2C1 [nepicastat, (S)-5-Aminomethyl-1-(5,7-difluoro-1,2,3,4-tetrahydronaphth-2-yl)-2,3-dihydro-2-thioxo-1H-imidazole hydrochloride] | – | – | no detectable differences; also recorded: no significant effect | significant improvement; also recorded: significant effect
